Like-named read-outs stand apart in the source and are kept apart here.
Tests used:
Type in all cases: in vivo, dog
COX-1 = biological target: T1, COX-1 (Canis lupus familiaris, UniProt Q8HZR1); test: COX-1 IC50 determination in dogs; conditions: six dogs; γ-tocopherol tested as tocopherol composition comprising 66.6% gamma-tocopherol
T1 construct: from tissue
T1 sequence (Q8HZR1 28-603): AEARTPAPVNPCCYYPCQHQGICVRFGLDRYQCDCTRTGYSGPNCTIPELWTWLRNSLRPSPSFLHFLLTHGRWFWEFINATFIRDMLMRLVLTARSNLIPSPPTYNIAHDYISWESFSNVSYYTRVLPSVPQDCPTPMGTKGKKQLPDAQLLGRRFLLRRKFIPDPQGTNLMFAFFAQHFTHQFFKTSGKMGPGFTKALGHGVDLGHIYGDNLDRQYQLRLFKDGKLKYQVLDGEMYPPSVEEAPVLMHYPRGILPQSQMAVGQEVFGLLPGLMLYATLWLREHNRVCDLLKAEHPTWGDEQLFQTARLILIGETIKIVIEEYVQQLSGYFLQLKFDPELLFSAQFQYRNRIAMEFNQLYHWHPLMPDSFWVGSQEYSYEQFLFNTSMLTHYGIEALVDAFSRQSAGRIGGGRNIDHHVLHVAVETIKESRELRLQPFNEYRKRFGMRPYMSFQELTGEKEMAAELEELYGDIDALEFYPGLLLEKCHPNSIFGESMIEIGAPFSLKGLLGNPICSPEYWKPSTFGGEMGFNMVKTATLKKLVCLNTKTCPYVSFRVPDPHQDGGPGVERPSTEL

COX-2 = biological target: T2, COX-2 (Canis lupus familiaris, UniProt Q8SPQ9); test: COX-2 IC50 determination in dogs; design: from tissue; conditions: for COX-1:COX-2: ratio of COX-1 IC50 to COX-2 IC50 (selectivity)
T2 sequence (Q8SPQ9 18-604): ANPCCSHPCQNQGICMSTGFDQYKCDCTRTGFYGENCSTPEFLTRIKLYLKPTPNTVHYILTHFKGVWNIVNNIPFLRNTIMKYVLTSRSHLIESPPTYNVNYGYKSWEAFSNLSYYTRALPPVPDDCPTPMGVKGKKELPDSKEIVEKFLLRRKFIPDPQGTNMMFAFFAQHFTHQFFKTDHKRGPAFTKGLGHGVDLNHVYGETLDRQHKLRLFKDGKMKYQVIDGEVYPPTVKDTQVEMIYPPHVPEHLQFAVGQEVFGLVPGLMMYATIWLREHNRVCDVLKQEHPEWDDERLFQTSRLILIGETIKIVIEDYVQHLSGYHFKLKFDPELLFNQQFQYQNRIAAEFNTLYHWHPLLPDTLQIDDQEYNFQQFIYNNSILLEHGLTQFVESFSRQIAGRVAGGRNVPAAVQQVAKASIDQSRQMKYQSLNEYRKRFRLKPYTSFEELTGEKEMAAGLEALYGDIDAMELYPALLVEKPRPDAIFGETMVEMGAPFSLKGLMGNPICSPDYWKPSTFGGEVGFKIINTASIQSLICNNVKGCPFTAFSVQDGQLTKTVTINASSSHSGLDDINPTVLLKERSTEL

urate-induced lameness = test: crystal urate-induced lameness model in dogs; conditions: 10 or 100 mg/kg body weight, 66.4% w/w or 90.9% w/w gamma-tocopherol
Description: A study was conducted to evaluate the effectiveness of the inventive formulations using the crystal urate-induced lameness model dogs. Formulations according to the invention and comprising 66.4% w/w or 90.9% w/w gamma-tocopherol and at 10 and 100 mg/kg body weight were administered to the dogs.

[1] = six dogs, γ-tocopherol tested as tocopherol composition comprising 66.6% gamma-tocopherol, read-out: COX-2 IC50

Structure (SMILES) | IC50 (COX-1) [µM] | IC50 (COX-2) [µM] | COX-1:COX-2 (COX-2) | IC50 (COX-2; [1]) [µM] | COX-1 IC50 (COX-1) | degree of force upon the urate-treated joints tolerated (urate-induced lameness; FIGS. 3-4) | degree of lameness (urate-induced) (urate-induced lameness; after 8 hours, FIGS. 1-2)
CC(C(=O)O)c1ccc2c(c1)[nH]c1ccc(Cl)cc12 (stereo not shown) [Carprofen] | 68.6 | 10 | 7 | – | – | – | –
CC1(C)OC(=O)C(OCC2CC2)=C1c1ccc(S(C)(=O)=O)cc1 [Firocoxib] | 119 | – | 384 | 0.31 | – | – | –
Cc1c(O)cc2c(c1C)O[C@](C)(CCC[C@H](C)CCC[C@H](C)CCCC(C)C)CC2 [γ-Tocopherol, 3,4-dihydro-2,7,8-trimethyl-2-(4,8,12-trimethyltridecyl)-2H-1-benzyopyran-6-ol] | – | – | – | 27.8 | No activity | increased | Improvement in the degree of lameness
